This note sets out measurements from paper PMC10949855 (Journal of veterinary pharmacology and therapeutics, 2022).

Each structure is given as a SMILES string.

The subject of the experiment is healthy dogs. The experiment is described as follows: Rectal temperature change from baseline. In kind it is in vivo, dogs (Beagles). Particulars: SC 0.4 mg/kg, n=6, P<0.05.

Take `Oc1ccc2c(c1)[C@@]13CCCC[C@@]1(O)[C@@H](C2)N(CC1CCC1)CC3` [butorphanol]: the “statistically significant decrease in rectal temperature compared to baseline” value is reported as “did not occur”.
